# Data taken from PubChem BioAssay (NCI).
#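 Step 1: Grow cells in 96-well plates. Step 2: Expose to compound for 48 hours at 5 concentrations. Step 3: Interpolate endpoints linearly; if unreached, use highest concentration. At the GI50, growth is halved. Definition used: TGI = concentration required for complete inhibition of growth.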
# Columns and labels:
# Assay in all cases: NCI anticancer screen, dose series, 48 h
# SK-OV-3 ovarian = test system: SK-OV-3 ovarian
# HCT-116 colon = test system: HCT-116 colon
# EKVX NSCLC = test system: EKVX NSCLC
# OVCAR-8 ovarian = test system: OVCAR-8 ovarian
# KM12 colon = test system: KM12 colon
# HCT-15 colon = test system: HCT-15 colon
# HOP-92 NSCLC = test system: HOP-92 NSCLC
# RXF 393 renal = test system: RXF 393 renal
# COLO 205 colon = test system: COLO 205 colon
# HOP-62 NSCLC = test system: HOP-62 NSCLC
SMILES,GI50 (SK-OV-3 ovarian) [µM],TGI (SK-OV-3 ovarian) [µM],GI50 (HCT-116 colon) [µM],TGI (HCT-116 colon) [µM],GI50 (EKVX NSCLC) [µM],TGI (EKVX NSCLC) [µM],GI50 (OVCAR-8 ovarian) [µM],TGI (OVCAR-8 ovarian) [µM],GI50 (KM12 colon) [µM],TGI (KM12 colon) [µM],GI50 (HCT-15 colon) [µM],TGI (HCT-15 colon) [µM],GI50 (HOP-92 NSCLC) [µM],TGI (HOP-92 NSCLC) [µM],GI50 (RXF 393 renal) [µM],TGI (RXF 393 renal) [µM],GI50 (COLO 205 colon) [µM],TGI (COLO 205 colon) [µM],GI50 (HOP-62 NSCLC) [µM],TGI (HOP-62 NSCLC) [µM]
C=C[C@]1(C)C=C2C(=O)[C@@]3(O)OC[C@@]4(CCCC(C)(C)C43O)C2(O)C(O)C1 (stereo not given in full),23,69.6,1.18,2.46,15,31.3,4.03,15,13.1,26.8,3.04,9.21,5.13,18.5,1.62,3.48,1.54,3.08,11.4,24.7
CC1CC2(CC[C@@H]1O)OCCO2 (stereo not given in full),,> 100,,> 100,,> 100,,> 100,,> 100,,> 100,,> 100,,> 100,,> 100,,> 100
CCOC(=O)c1c(C)n(Cc2ccc(Cl)cc2Cl)c2c1cc1oc(=O)c(=O)n3c(Cc4ccccc4)nc2c13,15.3,30.7,2.05,4.87,8.05,20.8,5.22,25.8,1.63,3.47,3.92,14.8,1.56,3.81,2.98,7.34,4.65,25.3,5.37,18.3
O=C(NN1C(=O)CSC1c1ccc(Cl)cc1)c1[nH]c2ccc(F)cc2c1-c1ccccc1 (stereo not given),7.25,20,1.87,4.11,6.23,24.8,4.34,20.6,1.61,3.38,3.9,14.3,2.42,6.6,3.42,15.4,2.2,4.81,2.34,5.55
CC1=CC(=O)C(C(C)=Nc2ccccc2Cl)C(=O)O1 (stereo not given),> 100,> 100,> 100,> 100,> 100,> 100,> 100,> 100,> 100,> 100,> 100,> 100,94.4,> 100,> 100,> 100,> 100,> 100,> 100,> 100
Cn1cc(-c2ccc3c(c2)CCN3C(=O)Cc2cccc(C(F)(F)F)c2)c2c(N)ncnc21,1.26,8.14,4.64,18.1,8.7,29,4.47,40.5,0.401,15.5,1.77,16.1,1.7,9.2,3.46,19.5,4.23,17.9,8.17,29.2
O=C(O)CCC1CCc2cccc3occ1c23 (stereo not given),,> 100,,> 100,,> 100,,> 100,,> 100,,> 100,,> 100,,> 100,,> 100,,> 100
Cn1cc(-c2ccc(CNc3cc(-c4cnc5cc(OCCCN6CCCC6)ccn45)ncn3)cc2)cn1,23,43.3,1.57,2.98,3.01,9.59,1.81,3.61,1.86,3.68,2.81,12,3.89,22.2,1.61,3.33,10.6,25.9,14.4,31.9
Cc1cccc(C(C)(C)C)c1NC(=O)C(=O)C(c1cnc2ccccc2n1)[N+](=O)[O-] (stereo not given),,> 100,,> 100,,> 100,,> 100,,> 100,,> 100,,> 100,,> 100,,> 100,,> 100
CCCCC[C@H]1C/C=C2/C(=O)C(Cl)=C[C@@H]2C/C=C\CCCC(=O)O[C@@H](CCCCC)C/C=C2/C(=O)C(Cl)=C[C@@H]2C/C=C\CCCC(=O)O1,0.966,4.18,0.186,0.523,0.543,1.76,0.38,1.59,0.388,0.92,0.49,1.85,0.314,0.687,0.297,0.576,0.316,0.687,0.416,1.01
